{"source": "ChEMBL document CHEMBL4831556", "about": "“Discovery of a Novel Potent and Selective Calcium Release-Activated Calcium Channel Inhibitor: 2,6-Difluoro-N-(2'-methyl-3'-(4-methyl-5-oxo-4,5-dihydro-1,3,4-oxadiazol-2-yl)-[1,1'-biphenyl]-4-yl)benzamide. Structure-Activity Relationship and Preclinical Characterization” (J Med Chem, 2021)", "key": {"[1]": {"assay": "Cmax in human whole blood at 80 mg, qd", "type": "ADME, tissue-based", "set-up": "dose 80 mg"}, "[2]": {"assay": "Cmax in collagen-induced rheumatoid arthritis DBA/1J mouse model at 3 mg/kg, po administered twice daily for 15 days", "type": "ADME, organism-based", "set-up": "route oral, time 15 day, dose 3 mg/kg", "details": "in vivo"}, "[3]": {"assay": "Tmax in CFA-induced rheumatoid arthritis Lewis rat model at 3 mg/kg, po administered once daily for 15 days", "type": "ADME, organism-based", "details": "in vivo, time 15 day"}, "[4]": {"assay": "Cmax in BALB/c mouse model of mBSA-induced delayed type hypersensitivity at 1 mg/kg, po administered twice daily for 7 days followed by mBSA challenge and measured after 24 hrs", "type": "ADME, organism-based", "set-up": "route oral, time 8 day, dose 1 mg/kg", "details": "in vivo"}, "[5]": {"assay": "Tmax in CFA-induced rheumatoid arthritis Lewis rat model at 1 mg/kg, po administered once daily for 15 days", "type": "ADME, organism-based", "details": "in vivo, time 15 day"}, "[6]": {"assay": "Tmax in CFA-induced rheumatoid arthritis Lewis rat model at 0.3 mg/kg, po administered once daily for 15 days", "type": "ADME, organism-based", "details": "in vivo, time 15 day"}, "[7]": {"assay": "Cmax in human whole blood at 80 mg, bid", "type": "ADME, tissue-based", "set-up": "dose 80 mg"}, "[8]": {"assay": "AUClast in BALB/c mouse model of mBSA-induced delayed type hypersensitivity at 10 mg/kg, po administered twice daily for 7 days followed by mBSA challenge and measured after 24 hrs", "type": "ADME, organism-based", "set-up": "route oral, time 8 day, dose 10 mg/kg", "details": "in vivo"}, "[9]": {"assay": "Tmax in BALB/c mouse model of mBSA-induced delayed type hypersensitivity at 10 mg/kg, po administered twice daily for 7 days followed by mBSA challenge and measured after 24 hrs", "type": "ADME, organism-based", "details": "in vivo, time 8 day"}, "[10]": {"assay": "AUClast in CFA-induced rheumatoid arthritis Lewis rat model at 1 mg/kg, po administered once daily for 15 days", "type": "ADME, organism-based", "set-up": "route oral, dose 1 mg/kg, time 15 day", "details": "in vivo"}, "[11]": {"assay": "Cmax in collagen-induced rheumatoid arthritis DBA/1J mouse model at 3 mg/kg, po administered twice daily for 15 days in presence of 0.75 mg/kg of methotrexate", "type": "ADME, organism-based", "set-up": "route oral, dose 3 mg/kg, time 15 day", "details": "in vivo"}, "[12]": {"target": "Voltage-gated inwardly rectifying potassium channel KCNH2 (Homo sapiens, UniProt Q12809)", "sequence (Q12809 whole entry)": "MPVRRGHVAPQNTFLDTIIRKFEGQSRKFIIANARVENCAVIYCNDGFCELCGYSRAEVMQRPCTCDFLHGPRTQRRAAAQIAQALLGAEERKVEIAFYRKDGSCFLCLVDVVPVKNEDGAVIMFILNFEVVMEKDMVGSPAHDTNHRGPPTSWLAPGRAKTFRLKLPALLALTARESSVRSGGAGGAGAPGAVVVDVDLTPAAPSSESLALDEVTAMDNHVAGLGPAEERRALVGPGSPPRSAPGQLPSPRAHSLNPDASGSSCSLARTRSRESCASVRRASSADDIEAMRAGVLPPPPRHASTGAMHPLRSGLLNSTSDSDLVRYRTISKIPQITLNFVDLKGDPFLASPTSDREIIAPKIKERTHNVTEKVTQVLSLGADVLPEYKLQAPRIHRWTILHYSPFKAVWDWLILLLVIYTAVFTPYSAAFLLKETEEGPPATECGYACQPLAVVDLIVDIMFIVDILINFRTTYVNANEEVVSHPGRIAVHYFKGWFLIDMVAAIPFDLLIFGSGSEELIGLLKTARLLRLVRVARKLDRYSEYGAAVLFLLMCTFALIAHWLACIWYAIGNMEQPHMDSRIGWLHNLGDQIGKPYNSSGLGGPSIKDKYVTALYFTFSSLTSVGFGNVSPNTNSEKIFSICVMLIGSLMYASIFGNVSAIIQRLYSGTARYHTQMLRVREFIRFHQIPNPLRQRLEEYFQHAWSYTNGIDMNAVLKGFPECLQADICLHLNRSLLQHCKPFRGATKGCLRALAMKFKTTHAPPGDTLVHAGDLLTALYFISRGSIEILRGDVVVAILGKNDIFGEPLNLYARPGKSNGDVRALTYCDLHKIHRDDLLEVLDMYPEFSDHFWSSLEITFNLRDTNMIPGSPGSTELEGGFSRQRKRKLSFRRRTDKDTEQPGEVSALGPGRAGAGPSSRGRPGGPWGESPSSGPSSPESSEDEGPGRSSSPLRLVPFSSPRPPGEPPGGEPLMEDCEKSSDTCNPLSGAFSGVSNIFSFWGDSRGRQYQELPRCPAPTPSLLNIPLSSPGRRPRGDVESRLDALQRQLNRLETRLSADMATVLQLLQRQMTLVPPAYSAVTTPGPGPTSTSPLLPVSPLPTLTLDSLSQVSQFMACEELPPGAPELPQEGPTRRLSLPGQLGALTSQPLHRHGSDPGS", "assay": "Inhibition of human ERG by FLIPR TETRA method"}, "[13]": {"assay": "Cmax in CFA-induced rheumatoid arthritis Lewis rat model at 1 mg/kg, po administered once daily for 15 days", "type": "ADME, organism-based", "set-up": "route oral, dose 1 mg/kg, time 15 day", "details": "in vivo"}, "[14]": {"assay": "Trough concentration in human whole blood at 80 mg, qd", "type": "ADME, tissue-based", "details": "read-out: Cmin"}, "[15]": {"assay": "Half life in Lewis rat at 10 mg/kg, po measured upto 24 hrs by LC-MS/MS analysis", "type": "ADME, organism-based", "details": "in vivo"}}}
{"compound": "Cc1c(-c2ccc(NC(=O)c3c(F)cccc3F)cc2)cccc1-c1nn(C)c(=O)o1", "values": [{"measurement": "Cmax", "setting": "[1]", "value": 950, "unit": "nM"}, {"measurement": "Cmax", "setting": "[2]", "value": 1900, "unit": "nM"}, {"measurement": "Tmax", "setting": "[3]", "value": 4, "unit": "h"}, {"measurement": "Cmax", "setting": "[4]", "value": 600, "unit": "nM"}, {"measurement": "Tmax", "setting": "[5]", "value": 2, "unit": "h"}, {"measurement": "Tmax", "setting": "[6]", "value": 2, "unit": "h"}, {"measurement": "Cmax", "setting": "[7]", "value": 1570, "unit": "nM"}, {"measurement": "AUC(0-t) at 192 h", "setting": "[8]", "value": 17, "unit": "µM·h"}, {"measurement": "Tmax", "setting": "[9]", "value": 2, "unit": "h"}, {"measurement": "AUC(0-t) at 360 h", "setting": "[10]", "value": 36, "unit": "µM·h"}, {"measurement": "Cmax", "setting": "[11]", "value": 1600, "unit": "nM"}, {"measurement": "IC50", "setting": "[12]", "value": "> 10", "unit": "µM"}, {"measurement": "Cmax", "setting": "[13]", "value": 2000, "unit": "nM"}, {"measurement": "concentration", "setting": "[14]", "value": 185, "unit": "nM"}]}
{"compound": "Cc1c(-c2ccc(NC(=O)c3c(F)cccc3Cl)cc2)cccc1-c1nn(C)c(=O)o1", "values": [{"measurement": "half-life", "setting": "[15]", "value": 960, "unit": "min"}]}
